From patent US20110015153A1, “FLY CONTROL METHOD” (E.I. DU PONT DE NEMOURS AND COMPANY, priority 2007, published 2011)

Test system: Adult L. serricata (blowflies)
Experiment: Test A: adult blowflies on blood agar containing test compound, number of dead flies scored
Assay type: in vivo
Conditions: 4 flies in test
Experimental: Adult L. serricata (blowflies): Adult flies are placed on beds of blood agar (in individual test wells; 4 flies per well) in which test compound (3-bromo-1-(3-chloro-2-pyridinyl)-N-[4-cyano-2-methyl-6-[(methylamino)carbonyl]phenyl]-1H-pyrazole-5-carboxamide) was dissolved/suspended prior to hardening of agar. Flies can take up test compound by both ingestion and contact. Assays are scored by number of dead flies at 2 hours, 4 hours, and 24 hours.

Row | SMILES | Number dead flies at 2 hours (Rate 1 ppm in blood agar) | Number dead flies at 4 hours (Rate 1 ppm in blood agar) | Number dead flies at 24 hours (Rate 1 ppm in blood agar) | Number dead flies at 2 hours (Rate 10 ppm in blood agar) | Number dead flies at 4 hours (Rate 10 ppm in blood agar) | Number dead flies at 24 hours (Rate 10 ppm in blood agar) | Number dead flies at 2 hours (Rate 25 ppm in blood agar) | Number dead flies at 4 hours (Rate 25 ppm in blood agar) | Number dead flies at 24 hours (Rate 25 ppm in blood agar) | Number dead flies at 2 hours (Rate 50 ppm in blood agar) | Number dead flies at 4 hours (Rate 50 ppm in blood agar) | Number dead flies at 24 hours (Rate 50 ppm in blood agar) | Number dead flies at 2 hours (Rate 100 ppm in blood agar) | Number dead flies at 4 hours (Rate 100 ppm in blood agar) | Number dead flies at 24 hours (Rate 100 ppm in blood agar)
1 | CCOP(=S)(OCC)Oc1nc(Cl)c(Cl)cc1Cl [Chloropyriphos] | 0 | 1 | 4 | 1 | 4 | 4 | 3 | 4 | 4 | 4 | 4 | 4 | 4 | 4 | 4
2 | CNC(=O)c1cc(C#N)cc(C)c1NC(=O)c1cc(Br)nn1-c1ncccc1Cl [Test compound, 3-bromo-1-(3-chloro-2-pyridinyl)-N-[4-cyano-2-methyl-6-[(methylamino)-carbonyl]phenyl]-1H-pyrazole-5-carboxamide] | 0 | 0 | 0 | 0 | 0 | 1 | 0 | 0 | 2 | 0 | 0 | 3 | 0 | 0 | 3
